O=Cc1ccc2c(c1)OCO2
solubility (mole fraction)
Conditions | in acetone | in chloroform | in ethanol | in isopropanol | in water
273.15 K | 0.0521 | 0.427 | 0.0056 | 0.0174 | 0.000118
278.15 K | 0.0655 | 0.477 | 0.0143 | 0.0227 | 0.000153
283.15 K | 0.0876 | 0.531 | 0.0396 | 0.0332 | 0.00022
288.15 K | 0.118 | 0.598 | 0.0697 | 0.0461 | 0.000277
293.15 K | 0.155 | 0.693 | 0.123 | 0.0753 | 0.000393
